Data reported in patent publication US7838495B2, “Compositions and methods of use of EPB1, and ErbB3 binding protein” (University of Maryland, Baltimore, priority 2007, dated 2010).

Experiments:
C81 cells = experiment: Response of C81 transfectants to DHT and bicalutamide; assay type: cell-based, human; details: steroid reduced medium
Description: FIG. 4A-C. […] Equal numbers (5×10^4) of vector or EBP1 stably transfected cells were plated at Day 0 in complete media and viable cell numbers determined at the indicated times. Each point represents mean±S.E. of 3 wells. Representative of 3 experiments (Right panel). Colony growth in soft agar. C81 cells stably transfected with either pcDNA or EBP1 were plated in soft agar at the cell densities indicated and colony numbers assessed at Day 10. Each point represents mean±S.E. of 3 dishes. Data is representative of 3 experiments. B. (Left Panel) Response of EBP1 and vector transfected C81 cells to dihydrotestosterone (DHT). EBP1 and vector control C81 transfected cells and early passage LNCaP cells were plated in complete media at 5×10^3 cells/well in 96 well plates for one day. […] Total cell numbers were determined seven days later by MTT assays. […] Total cell numbers were assessed 7 days later by MTT assay. […] Total cell numbers were determined by MTT assays 5 days later. […]
Western Blot Analysis. […] For soft agar growth assays, increasing concentrations of cells (as indicated) were plated in 35 mm Petri dishes in 0.3% agar in complete media and colonies were counted after 10 days of incubation (21). […] Relative cell growth was determined using a Promega Proliferation Reagent (Promega, Madison Wis.) as per manufacturer's instructions with absorbance being read at […] using a Dynex plate reader. […]

LNCaP cells = experiment: Growth response of LNCaP vector controls and EBP1 transfectants to DHT and bicalutamide; assay type: cell-based, human; design: Emax: dose or concentration left out as unconfirmed
Description: Cell Growth Assays: To measure growth in complete media, cells (2×10^4) were seeded in triplicate in individual wells of 12-well tissue culture plates in RPMI-1640 with 10% FBS and cultured for the indicated number of days. Cells were trypsinized, stained with Trypan Blue (0.4%), and counted in a hemacytometer. For soft agar growth assays, increasing concentrations of cells (as indicated) were plated in 35 mm Petri dishes in complete media and 0.3% Difco Bacto Agar over an 0.5% agar layer. Colonies were counted after 10 days of incubation. For studies assessing the effect of dihydrotestosterone (DHT) on cell growth, cells (2×10^4) were plated in 12-well plates in complete media. After a 24-hour attachment period, the medium was replaced with steroid-free medium [phenol red-free RPMI 1640 and 5% charcoal-stripped FBS (Sigma)] for 48 hours. The final concentration of testosterone in the steroid-reduced media was less than 5 pM. After 48 hours of steroid depletion, cells were re-fed with fresh steroid-reduced medium with or without the indicated concentrations of DHT and/or bicalutamide (10 μM), and total cell numbers were assessed 7 days later.

[1] = tested on: AR regulated MMTV promoter; experiment: MMTV-luciferase reporter response to R1881 in A16 and C13 cells; assay type: cell-based, human; details: EBP1 knock out cells vs A16, R1881 10^-8 M, p<0.05
Description: FIG. 7A-C. Suppression of EBP1 by shRNA promotes a hormone refractory phenotype A. Western blot analysis of Ebp1. Lysates of LNCaP cells stably transduced with a control lentivirus (A16) or an EBP1 targeted shRNA (13C) were collected and resolved by SDS-PAGE. Western blots were probed for endogenous EBP1 or ACTIN as indicated. B. Inhibition of EBP1 expression abrogates the ability of HRG to arrest growth (Left panel) Control and shRNA EBP1 targeted cells were plated in complete media at […] for one day. The next day, cells were switched to steroid reduced-media and HRG added at the indicated concentrations. Total cell numbers were determined seven days later by MTT assay. Each point represents mean±S.E. of 6 wells. Data is representative of three experiments. (Right Panel) AKT phosphorylation in EBP1 knock out cells Control (A16) or EBP 1 knock out cells (C13) were treated with HRG (20 ng/ml) for 15 mm and cell lysates assessed for the presence of phospho and total AKT as indicated. C. […] Sixteen hours later, luciferase activity was measured. […] Lysates of logarithmically growing A16 and C13 cells were resolved by SDS-PAGE and analyzed by Western blotting using antibodies to AGR2 and ACTIN as indicated. […] The viability of the cells was determined by MTT assays 5 days later. […]

AR = AR (Homo sapiens, UniProt P10275, T878A)
Chain of AR (P10275 whole entry T878A): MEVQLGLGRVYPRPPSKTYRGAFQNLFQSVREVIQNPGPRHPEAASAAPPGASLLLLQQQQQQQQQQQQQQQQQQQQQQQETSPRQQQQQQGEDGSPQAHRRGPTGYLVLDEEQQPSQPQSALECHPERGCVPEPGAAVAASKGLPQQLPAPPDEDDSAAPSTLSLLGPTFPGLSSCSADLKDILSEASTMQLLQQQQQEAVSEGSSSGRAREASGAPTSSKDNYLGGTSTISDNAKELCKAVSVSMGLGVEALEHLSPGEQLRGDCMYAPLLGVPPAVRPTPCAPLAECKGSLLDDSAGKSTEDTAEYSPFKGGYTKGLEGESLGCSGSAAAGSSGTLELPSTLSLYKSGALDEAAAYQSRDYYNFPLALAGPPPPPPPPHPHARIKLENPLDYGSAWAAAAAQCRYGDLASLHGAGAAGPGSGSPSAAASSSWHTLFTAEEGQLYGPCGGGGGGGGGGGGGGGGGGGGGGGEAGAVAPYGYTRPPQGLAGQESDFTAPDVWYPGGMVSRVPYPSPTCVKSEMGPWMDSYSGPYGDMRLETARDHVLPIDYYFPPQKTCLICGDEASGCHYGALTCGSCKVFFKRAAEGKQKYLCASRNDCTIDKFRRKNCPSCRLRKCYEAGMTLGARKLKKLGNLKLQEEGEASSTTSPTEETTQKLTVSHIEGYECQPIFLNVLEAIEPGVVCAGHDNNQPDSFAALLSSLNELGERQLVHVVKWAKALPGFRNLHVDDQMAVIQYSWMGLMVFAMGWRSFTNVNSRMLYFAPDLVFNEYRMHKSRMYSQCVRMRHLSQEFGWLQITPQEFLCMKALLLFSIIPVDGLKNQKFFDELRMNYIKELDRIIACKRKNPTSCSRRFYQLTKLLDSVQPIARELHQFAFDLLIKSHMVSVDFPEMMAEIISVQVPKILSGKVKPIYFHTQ
Description: Luciferase Reporter Assays: Vector control or EBP1-transfected LNCaP (5×10^4) cells were plated in twelve-well plates in complete media. When cells reached 50-60% confluence, they were transfected with 0.5 μg of MMTV-luc using the Fugene-6 reagent (Roche). Cells were also transfected with the RL-TK vector as an internal control. […] Luciferase activity was determined as previously described using a Dual-Luciferase kit (Promega, Madison, Wis.). The activities of renilla luciferase were used to normalize any variations in transfection efficiency. The promoter activities of each plasmid construct were calculated as the firefly-renilla luciferase activity ratios. All transfection experiments were carried out in triplicate wells and repeated three times.

Compound	growth response to androgen (DHT) (C81 cells; EBP1 transfected C81 cells)	growth response to androgen (DHT) (C81 cells; vector control C81 cells)	Emax (LNCaP cells; Homo sapiens, LNCaP, read-out: maximal stimulation of growth by DHT) [%]	stimulation of growth by DHT (LNCaP cells; LNCaP EBP1 transfectants, 10^-9 M DHT) [%]	transcriptional response of AR regulated MMTV promoter to R1881 [1]	AR activation (MMTV-luc) (AR; LNCaP EPB1 transfectants)	activation of MMTV-luc luciferase activity (AR; LNCaP vector controls, 10^-8 M) [fold]
C[C@]12CCC(=O)C[C@@H]1CC[C@@H]1[C@@H]2CC[C@]2(C)[C@@H](O)CC[C@@H]12 [DHT, dihydrotestosterone]	responded to androgen in a similar manner as the original low passage LNCaP androgen sensitive cells	unresponsive	250	35	–	–	–
C[C@]1(O)CC[C@H]2[C@@H]3CCC4=CC(=O)CCC4=C3C=C[C@@]21C [R1881]	–	–	–	–	enhanced	neither R1881 nor cyproterone acetate nor the combination thereof stimulated AR activation	20
